Results as given in patent publication US7572777B2, “Florfenicol prodrug having improved water solubility” (Schering-Plough Animal Health Corp., priority 2003, dated 2009).

Legend:
physchem = format: physicochemical
Procedure: Successive aliquots of solid phosphate ester prodrug (sodium salt) were added to water with agitation. Addition was continued until mixing became difficult due to high viscosity, at which point all of the prodrug remained in solution.

[1] = Conversion of florfenicol phosphate to florfenicol in swine (plasma florfenicol after iv dosing); format: in vivo; settings: pigs, approximately 6.7 mg/kg (FIG. 4)
Procedure: FIG. 4 is a graphic presentation of florfenicol concentrations in the plasma of pigs following intravenous administration of florfenicol phosphate ester. The plot depicts florfenicol concentrations detected in the plasma of three pigs following intravenous administration of the florfenicol phosphate ester prodrug at a dose of approximately 6.7 mg/kg of body weight, which equates to a florfenicol equivalent dose of 5 mg/kg. Each symbol denotes the data from a different pig.
[…]. Plasma samples were collected after drug administration and analyzed for concentrations of florfenicol. […].

[2] = Stability of the phosphate prodrug in aqueous solutions; format: physicochemical; settings: for % Compound B (cyclic phosphate formed) / % Compound C (free florfenicol formed) / % Compound A: 40° C., 30 days under nitrogen; for % Compound A: initial purity 98.3%
Description: Although relatively stable in aqueous solutions, over prolonged periods of time the phosphate ester of florfenicol (Formula I) undergoes slow degradation resulting in the release of free florfenicol as well as the formation of cyclic phosphate diester. The formation of the cyclic diester occurs through the phosphate anion displacement of fluorine and requires participation of the phosphate di-anion, which is much more nucleophilic than the corresponding mono-anion. Therefore, the rate of formation of the cyclic diester is largely dependent on the pH of the solution or more generally, on the degree of the phosphate ionization. […]. However, even such small changes of pH result in noticeable differences of the amount of the cyclic phosphate diester formed.

[3] = Conversion of florfenicol phosphate to florfenicol in cattle (plasma florfenicol after iv dosing); format: in vivo; settings: calves, approximately 10 mg/kg, HPLC-MS/MS (FIG. 2)
Description: […]. Each symbol denotes the data from a different calf.

[4] = Conversion of florfenicol phosphate to florfenicol in dogs (plasma florfenicol after iv dosing); format: in vivo; settings: approximately 11 mg/kg, HPLC-MS/MS (FIG. 3)
Procedure: . The plot depicts florfenicol concentrations in the plasma of three dogs following intravenous administration of the florfenicol phosphate ester prodrug at a dose of approximately 11.1 mg/kg of body weight, which equates to a florfenicol equivalent dose of 8.3 mg/kg. Each symbol denotes the data from a different dog.

[5] = Conversion of prodrug to florfenicol in rat serum; settings: 37° C., after 4 hours (FIG. 1)
[6] = Conversion of prodrug to florfenicol in bovine serum; settings: 37° C., after 4 hours (FIG. 1)
[7] = listed as Florfenicol phosphate
[8] = pH 4.48 adjusted with ethanolamine, 300 mg/mL active florfenicol
[9] = pH 4.54, aqueous solution 300 mg/mL active florfenicol
[10] = pH 4.95, aqueous solution 300 mg/mL active florfenicol
[11] = pH 5.03 adjusted with ethanolamine, 300 mg/mL active florfenicol
[12] = pH 5.51 adjusted with ethanolamine, 300 mg/mL active florfenicol
[13] = pH 5.53, aqueous solution 300 mg/mL active florfenicol

CS(=O)(=O)c1ccc([C@@H](OP(=O)(O)O)[C@@H](CF)NC(=O)C(Cl)Cl)cc1 [florfenicol phosphate ester]
solubility (physchem; water, thermodynamic from solid): > 600 mg/mL
plasma florfenicol concentrations following treatment [1]: substantial concentrations of florfenicol were detected
plasma florfenicol concentrations following treatment [1, 7]: increased rapidly
stability in aqueous solution versus pH ([2]; below pH 4 or at neutral or higher pH ranges): less stable
stability of aqueous solutions of the prodrug ([2]; close to one equivalent of sodium hydroxide or ethanolamine added to concentrated aqueous solution, approximately pH 4.5 to pH 5.5): Satisfactory stability
effect of ionic strength on aqueous stability ([2]; increased ionic strength): reduces the aqueous stability
% Compound B (cyclic phosphate formed) [2, 8]: 0.18%
% Compound C (free florfenicol formed) [2, 8]: 0.92%
% Compound A [2, 8]: 93.43%
% Compound B (cyclic phosphate formed) [2, 9]: 0.17%
% Compound C (free florfenicol formed) [2, 9]: 1.02%
% Compound A [2, 9]: 94.40%
% Compound B (cyclic phosphate formed) [2, 10]: 0.37%
% Compound C (free florfenicol formed) [2, 10]: 1.01%
% Compound A [2, 10]: 93.38%
% Compound B (cyclic phosphate formed) [2, 11]: 0.58%
% Compound C (free florfenicol formed) [2, 11]: 0.86%
% Compound A [2, 11]: 95.83%
% Compound B (cyclic phosphate formed) [2, 12]: 1.25%
% Compound C (free florfenicol formed) [2, 12]: 0.70%
% Compound A [2, 12]: 93.83%
% Compound B (cyclic phosphate formed) [2, 13]: 1.41%
% Compound C (free florfenicol formed) [2, 13]: 0.93%
% Compound A [2, 13]: 93.06%
plasma florfenicol concentrations following treatment [3]: substantial concentrations of florfenicol were detected
plasma florfenicol concentrations following treatment [3, 7]: increased rapidly
plasma florfenicol concentrations following treatment [4]: substantial concentrations of florfenicol were detected
plasma florfenicol concentrations following treatment [4, 7]: increased rapidly

CS(=O)(=O)c1ccc([C@@H](OP(=O)([O-])[O-])[C@@H](CF)NC(=O)C(Cl)Cl)cc1.[Na+].[Na+] [sodium salt of florfenicol phosphate, [1R, 2S-1-(4-Methanesulfonylphenyl)-2-(2,2-dichloroacetylamino)-3-fluoropropyl]phosphate disodium salt]
aqueous solubility (original concentration by HPLC) (physchem): greater than 700 mg/mL
conversion of the prodrug into cyclic diester ([2]; heating a solution of the bis sodium salt): almost quantitative conversion

CS(=O)(=O)c1ccc([C@@H](OC(=O)CCCC(=O)O)[C@@H](CF)NC(=O)C(Cl)Cl)cc1 [glutarate ester of florfenicol]
conversion (hydrolysis) to florfenicol [5]: about 3%
conversion (hydrolysis) to florfenicol [6]: approximately 6%
